For 15 compounds, IC50 and ED50 results are on record in ChEMBL document CHEMBL1148558, “Optimization of CCR4 antagonists: side-chain exploration” (Bioorg Med Chem Lett, 2006).

By IC50 is commonly meant the concentration needed to halve the response being measured. The ED50 is the dose that gives a 50% effect, or the effect in half of the subjects. Low readings indicate an effect at a small dose, high ones a need for a large dose.

In test [1] the target is T1, C-C chemokine receptor type 4 (Homo sapiens, UniProt P51679).
T1 sequence (P51679 whole entry): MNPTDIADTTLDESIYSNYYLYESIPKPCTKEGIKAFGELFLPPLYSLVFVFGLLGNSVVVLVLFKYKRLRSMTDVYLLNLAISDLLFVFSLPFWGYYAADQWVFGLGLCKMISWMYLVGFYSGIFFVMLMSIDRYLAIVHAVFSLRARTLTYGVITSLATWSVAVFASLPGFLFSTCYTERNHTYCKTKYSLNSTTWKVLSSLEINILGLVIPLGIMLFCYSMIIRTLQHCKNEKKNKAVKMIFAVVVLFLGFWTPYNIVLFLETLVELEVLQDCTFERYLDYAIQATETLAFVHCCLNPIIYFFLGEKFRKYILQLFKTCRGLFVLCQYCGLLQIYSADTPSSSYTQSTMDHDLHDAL
Put plainly: Displacement of [125I]TARC from human CCR4 receptor transfected in HEK293 cells. In kind it is cell-based. (In general: In a radioligand displacement assay an active substance lowers the binding of a labelled ligand.)

Another test relates to L1.2. Put plainly: Cytotoxicity against CCR4 transfected L1.2 cells (murine pre-B cells). The class given is functional, cell-based. Conditions: Mus musculus.
The target of test [2] is T1, C-C chemokine receptor type 4. In words: Calcium mobilization mediated by CCR4 receptor in CEMS529 cells by FLIPR. The class given is functional, cell-based. A general note: Calcium flux is commonly read through the fluorescence of an indicator in the cells.
The subject of a further test is Mus musculus. In words: In vivo efficacy against allergic lung inflammation in BABL/c mice administered sc. The class given is functional.

Consider `CN1CCCC(C(=O)NCCNc2nccc(OCc3ccc(Cl)cc3Cl)n2)C1` (stereo not drawn), for which, in test [1], the IC50 is over 10 µM.

Regarding `CN1CCCC(C(=O)NCCCNc2nccc(OCc3ccc(Cl)cc3Cl)n2)C1` (stereo not drawn), the 50% inhibitory concentration (IC50) in test [1] is over 10 µM.

In test [1], `Cn1cnc(CC(=O)N2CCN(c3nccc(OCc4ccc(Cl)cc4Cl)n3)CC2)c1` gave a half-maximal inhibitory concentration (IC50) of over 10 µM.

In turn, `O=C(C1CCNCC1)N1CCN(c2nccc(NCc3ccc(Cl)cc3Cl)n2)CC1` registered an IC50 in test [1] of over 10 µM.

In turn, `CN1CCCC(C(=O)N2CCN(c3nccc(NCc4ccc(Cl)cc4Cl)n3)CC2)C1` (stereo not drawn) yielded a half-maximal inhibitory concentration (IC50) in test [1] of 0.7 µM.

With `O=C(Cc1cccnc1)N1CCN(c2nccc(OCc3ccc(Cl)cc3Cl)n2)CC1`, the IC50 in test [1] was over 10 µM.

`O=C(c1cccnc1)N1CCN(c2nccc(OCc3ccc(Cl)cc3Cl)n2)CC1` had an IC50 in test [1] of over 10 µM.

Consider `O=C(C1CCCNC1)N1CCN(c2nccc(NCc3ccc(Cl)cc3Cl)n2)CC1` (stereo not drawn), for which the IC50 in test [1] worked out at 0.8 µM.

The compound `O=C(C1CNC1)N1CCN(c2nccc(NCc3ccc(Cl)cc3Cl)n2)CC1` had a concentration for half-maximal inhibition (IC50) in test [1] of over 10 µM.

In test [1], `O=C([C@H]1CCCN1)N1CCN(c2nccc(NCc3ccc(Cl)cc3Cl)n2)CC1` showed a 50% inhibitory concentration (IC50) of 0.06 µM.

On to `CC(C)[C@@H](CNc1nccc(OCc2ccc(Cl)cc2Cl)n1)NC(=O)C1CCCN(C)C1` (stereo partly drawn), for which the concentration for half-maximal inhibition (IC50) in test [1] came out at 5.6 µM.

Regarding `O=C([C@@H]1CCCCN1)N1CCN(c2nccc(NCc3ccc(Cl)cc3Cl)n2)CC1`, in test [1], the half-maximal inhibitory concentration (IC50) was found to be 1 µM.

In turn, `CN1CCCC(C(=O)N2CCN(c3ccnc(NCc4ccc(Cl)cc4Cl)n3)CC2)C1` (stereo not drawn) registered a concentration for half-maximal inhibition (IC50) in test [1] of 0.3 µM.

On to `O=C([C@H]1CCCCN1)N1CCN(c2nccc(NCc3ccc(Cl)cc3Cl)n2)CC1`, for which the concentration for half-maximal inhibition (IC50) in test [1] is 0.05 µM; in the test on L1.2 it was over 100 µM; in test [2] it was 0.01 µM. Besides, the median effective dose (ED50) in the test on Mus musculus amounted to 30 mg/kg.

`CN1CCCC(C(=O)N2CCN(c3nccc(OCc4ccc(Cl)cc4Cl)n3)CC2)C1` (stereo not drawn): the concentration for half-maximal inhibition (IC50) in test [1] came out at 1.2 µM.
